Measured values reported in patent US20240374631A1, “A COMPOSITION FOR IMPROVING GUT MICROBIOTA, BEHAVIOURAL PATTERN, ALPHA-SYNUCLEIN LEVELS, SLEEP PATTERN AND/OR SERUM MELATONIN” (GN Corporation Co Ltd, priority 2021, published 2024).

Test system: gut microbiota
Assay: Gut microbiome analysis (16S rRNA sequencing of fecal samples) in STAM model of NASH
Type: in vivo, C57BL/6J mice
Conditions: pre (baseline)
Text: The study is reported in accordance with Animal Research: Reporting of In Vivo Experiments (ARRIVE) guidelines. C57BL/6J mice were obtained from Japan SLC, Inc. (Japan). All animals used in this study were cared for under the following guidelines: Act on Welfare and Management of Animals (Ministry of the Environment, Japan, Act No. 105 of Oct. 1, 1973), standards relating to the care and management of laboratory animals and relief of pain (Notice No. 88 of the Ministry of the Environment, Japan, Apr. 28, 2006) and the guidelines for proper conduct of animal experiments (Science Council of Japan, Jun. 1, 2006). Protocol approvals were obtained from SMC Laboratories, Japan's IACUC (Study reference no: […] Mice were maintained in a specific pathogen-free (SPF) facility under controlled conditions of temperature (23±3° C.), humidity (50±20%), lighting (12-hour artificial light and dark cycles; light from 8:00 to 20:00) and air exchange. The STAM model of NASH was induced as previously described [D10]. Mice were given a single subcutaneous injection of 200 μg streptozotocin (STZ, Sigma-Aldrich, USA) solution 2 days after birth and fed with a high-fat diet (HFD, 57 kcal % fat, Cat #HFD32, CLEA Japan, Inc., Japan) from 4-9 weeks of age. All mice develop liver steatosis and diabetes and at […] mice had established steatohepatitis, histologically. Studygroups: There were five study groups, described below. Eight mice were included in each study group. Eight NASH mice were orally administered vehicle supplemented with AFO-202 Beta Glucan at a dose of 1 mg/kg in a volume of 5 mL/kg once daily from 6 to 9 weeks of age. Eight NASH mice were orally administered vehicle supplemented with Telmisartan at a dose of 10 mg/kg once daily from 6 to 9 weeks of age. Frequency: Fecal samples were collected at the 6 weeks of age (before administration) and 9 weeks of age (before sacrifice). Procedure: At 6 weeks of age, fecal samples were collected from each mouse by clean catch method. […] A sterile petri dish was placed on the bench. Gently massage the abdomen, position the bottom of mouse over a fresh petri dish, and collect 1-2 fecal pellets. At sacrifice, fecal samples were aseptically collected from cecum. The tubes with feces were placed on ice immediately. These tubes were snap frozen in liquid nitrogen and stored at -80° C. for shipping. In this analysis, the 16S rRNA sequence data acquired by the next-generation sequencer from the fecal […] was used to perform community analysis using the QIIME2 program for microbial community analysis. The raw read data in FASTQ format output from the next-generation sequencer was trimmed to remove adapter sequences and low QV regions that may be included in the data. Cutadapt was used to remove adapter sequences from DNA sequencing reads. Trimmomatic was used as read trimming tool for Illumina NGS data. The adapter sequence was trimmed using the adapter trimming program “cutadapt” if the Trimming of the region at the end of the read sequence overlapped the corresponding sequence by at least one base (mismatch tolerance: 20%). When reads containing N were present in at least one of Read1 and Read2, both Read1 and Read2 were removed. Trimming of low QV regions was performed on the read data after processing using the QV trimming program “Trimmomatic” under the following conditions. The window of 20 bases is slid from the 5' side, and the area where the average QV is less than 20 is trimmed. After trimming, only the reads with more than 50 bases remaining in both Read1 and Read2 were taken as output. The microbial community analysis based on 16S rRNA sequence was performed on the sequence data trimmed in the previous section using the microbial community analysis program “QIIME2”. The annotation program “sklearn” included in QIIME2 is used to annotate the ASV (OTU) sequences. […]

## CCCc1nc2c(C)cc(-c3nc4ccccc4n3C)cc2n1Cc1ccc(-c2ccccc2C(=O)O)cc1 [Telmisartan]
Line r302
  Abundance: S24-7, —, —: 47
Line r303
  Abundance: —, —, —: 0
Line r304
  Abundance: Ruminococcaceae, Oscillospira, —: 35
Line r305
  Abundance: Bacteroidaceae, Bacteroides, acidifaciens: 0
Line r306
  Abundance: Bacteroidaceae, Bacteroides, acidifaciens: 0
Line r307
  Abundance: Lachnospiraceae, Dorea, —: 25
Line r308
  Abundance: Ruminococcaceae, Other, Other: 10
Line r309
  Abundance: Lachnospiraceae, —, —: 7
Line r310
  Abundance: Lachnospiraceae, —, —: 20
Line r311
  Abundance: S24-7, —, —: 1
Line r312
  Abundance: Lachnospiraceae, Other, Other: 14
Line r313
  Abundance: —, —, —: 0
Line r314
  Abundance: Ruminococcaceae, Oscillospira, —: 0
Line r315
  Abundance: Ruminococcaceae, Oscillospira, —: 42
Line r316
  Abundance: Lachnospiraceae, —, —: 14
Line r317
  Abundance: Erysipelotrichaceae, —, —: 0
Line r319
  Abundance: Lachnospiraceae, —, —: 13
Line r320
  Abundance: Ruminococcaceae, Oscillospira, —: 0
Line r321
  Abundance: Lachnospiraceae, —, —: 22
Line r322
  Abundance: Other, Other, Other: 49
Line r323
  Abundance: F16, —, —: 0
Line r324
  Abundance: Christensenellaceae, —, —: 19
Line r325
  Abundance: Lachnospiraceae, Other, Other: 0
Line r326
  Abundance: Ruminococcaceae, Oscillospira, —: 12
Line r327
  Abundance: —, —, —: 80
Line r328
  Abundance: Ruminococcaceae, Other, Other: 14
Line r329
  Abundance: —, —, —: 0
Line r330
  Abundance: Lachnospiraceae, Other, Other: 0
Line r331
  Abundance: Other, Other, Other: 0
Line r332
  Abundance: Enterococcaceae, Vagococcus, —: 0
Line r333
  Abundance: Ruminococcaceae, Ruminococcus, —: 23
Line r334
  Abundance: Erysipelotrichaceae, Coprabacillus, —: 11
Line r335
  Abundance: Other, Other, Other: 0
Line r336
  Abundance: Ruminococcaceae, Oscillospira, —: 11
Line r337
  Abundance: Ruminococcaceae, Oscillospira, —: 0
Line r338
  Abundance: —, —, —: 0
Line r339
  Abundance: Lachnospiraceae, —, —: 0
Line r340
  Abundance: Ruminococcaceae, Oscillospira, —: 0
Line r341
  Abundance: Lachnospiraceae, Coprococcus, —: 0
Line r342
  Abundance: Ruminococcaceae, Other, Other: 8
Line r343
  Abundance: —, —, —: 0
Line r344
  Abundance: Erysipelotrichaceae, —, —: 6
Line r345
  Abundance: Rikenellaceae, —, —: 0
Line r346
  Abundance: —, —, —: 0
Line r347
  Abundance: —, —, —: 0
Line r348
  Abundance: —, —, —: 8
Line r349
  Abundance: Lachnospiraceae, —, —: 0
Line r350
  Abundance: —, —, —: 15
Line r351
  Abundance: Lachnospiraceae, Clostridium, Other: 0
Line r352
  Abundance: Erysipelotrichaceae, —, —: 9
Line r353
  Abundance: Streptococcaceae, Streptococcus, minor: 9
Line r354
  Abundance: Ruminococcaceae, Oscillospira, —: 0
Line r355
  Abundance: —, —, —: 27
Line r356
  Abundance: Lachnospiraceae, Other, Other: 7
Line r357
  Abundance: Other, Other, Other: 36
Line r358
  Abundance: —, —, —: 0
Line r359
  Abundance: —, —, —: 0
Line r360
  Abundance: —, —, —: 0
Line r362
  Abundance: Lachnospiraceae, —, —: 7
Line r363
  Abundance: Streptococcaceae, Streptococcus, —: 0
Line r365
  Abundance: S24-7, —, —: 0
Line r367
  Abundance: Other, Other, Other: 0
Line r368
  Abundance: [Mogibacteriaceae], —, —: 0
Line r369
  Abundance: Enterobacteriaceae, Enterobacter, Other: 0
Line r371
  Abundance: Erysipelotrichaceae, —, —: 0
Line r372
  Abundance: Aerococcaceae, Aerococcus, —: 0
Line r373
  Abundance: Ruminococcaceae, Oscillospira, —: 0
Line r374
  Abundance: Ruminococcaceae, Oscillospira, —: 0
Line r375
  Abundance: Other, Other, Other: 5
Line r377
  Abundance: Lachnospiraceae, Coprococcus, —: 0
Line r378
  Abundance: Other, Other, Other: 35
Table row r380
  Abundance: Family Lachnospiraceae, Genus Other, Species Other: 11
Table row r381
  Abundance: Family Ruminococcaceae, Genus Oscillospira, Species —: 0
Table row r382
  Abundance: Family S24-7, Genus —, Species —: 0
Table row r383
  Abundance: Family Ruminococcaceae, Genus Ruminococcus, Species —: 0
Table row r384
  Abundance: Family Ruminococcaceae, Genus Oscillospira, Species —: 31
Table row r389
  Abundance: Family Ruminococcaceae, Genus Ruminococcus, Species —: 0
Table row r390
  Abundance: Family Lachnospiraceae, Genus —, Species —: 0
Table row r391
  Abundance: Family Ruminococcaceae, Genus Oscillospira, Species —: 0
Table row r394
  Abundance: Family Corynebacteriaceae, Genus Corynebacterium, Species stationis: 0
Table row r395
  Abundance: Family Ruminococcaceae, Genus Other, Species Other: 5
Table row r396
  Abundance: Family S24-7, Genus —, Species —: 0
Table row r397
  Abundance: Family Ruminococcaceae, Genus Oscillospira, Species —: 0
Table row r398
  Abundance: Family Ruminococcaceae, Genus Oscillospira, Species —: 0
Table row r399
  Abundance: Family Ruminococcaceae, Genus Ruminococcus, Species —: 0
Table row r400
  Abundance: Family [Mogibacteriaceae], Genus —, Species —: 0
Table row r401
  Abundance: Family Erysipelotrichaceae, Genus Coprobacillus, Species —: 0
Table row r402
  Abundance: Family Erysipelotrichaceae, Genus Clostridium, Species cocleatum: 0
Table row r403
  Abundance: Family S24-7, Genus —, Species —: 0
Table row r404
  Abundance: Family Coriobacteriaceae, Genus —, Species —: 0
Table row r405
  Abundance: Family Coriobacteriaceae, Genus Adlercreutzia, Species —: 0
Table row r407
  Abundance: Family Enterococcaceae, Genus Vagococcus, Species —: 0
Table row r409
  Abundance: Family [Mogibacteriaceae], Genus —, Species —: 0
Table row r413
  Abundance: Family S24-7, Genus —, Species —: 0
Table row r414
  Abundance: Family Ruminococcaceae, Genus Oscillospira, Species —: 0
Table row r415
  Abundance: Family Planococcaceae, Genus Sporosarcina, Species —: 0
Table row r417
  Abundance: Family Erysipelotrichaceae, Genus Other, Species Other: 7
Table row r419
  Abundance: Family Ruminococcaceae, Genus Ruminococcus, Species —: 0
Table row r423
  Abundance: Family Coriobacteriaceae, Genus Adlercreutzia, Species —: 0
Table row r424
  Abundance: Family Other, Genus Other, Species Other: 0
Table row r425
  Abundance: Family Ruminococcaceae, Genus Other, Species Other: 0
Table row r426
  Abundance: Family Erysipelotrichaceae, Genus —, Species —: 0
Table row r427
  Abundance: Family Deferribacteraceae, Genus Mucispirillum, Species schaedleri: 0
Table row r428
  Abundance: Family Methylobacteriaceae, Genus Methylobacterium, Species Other: 0
